Measurements: PubChem BioAssay AID330 (DTP/NCI, 2004)
Toxic doses and inconclusive results are not listed. Square brackets hold non-standard residues; d marks the D form. Peptide text beside a SMILES is read from it. * marks the point of attachment. ξ: configuration not given here. Cbz = O=C(OCc1ccccc1)*; Bn = c1ccc(C*)cc1; ξC = NC(CS)C(=O)O

Tested on: P388 leukemia ip, CD2F1 mice, survival T/C
Test: NCI In Vivo Anticancer Drug Screen. Data for tumor model P388 Leukemia (intraperitoneal) in CD2F1 (CDF1) mice
Conditions: endpoint: median survival time, higher = longer survival
Summary of the method: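 Mice carrying the transplanted tumor received test compound or vehicle. Survival was recorded in each group, and the value is the treated-group measurement divided by that of the vehicle-treated control group.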

[1] = dose: 50.0 mg/kg/injection, schedule: Q01DX005 (ip), vehicle: saline with Tween-80
[2] = dose: 100.0 mg/kg/injection, schedule: Q01DX005 (ip), vehicle: saline with Tween-80
[3] = dose: 200.0 mg/kg/injection, schedule: Q01DX005 (ip), vehicle: saline with Tween-80
[4] = dose: 50.0 mg/kg/injection, schedule: Q01DX009 (ip), vehicle: saline with Tween-80
[5] = dose: 100.0 mg/kg/injection, schedule: Q01DX009 (ip), vehicle: saline with Tween-80
[6] = dose: 200.0 mg/kg/injection, schedule: Q01DX009 (ip), vehicle: saline with Tween-80
[7] = dose: 50.0 mg/kg/injection, schedule: Q01DX005 (ip), vehicle: Klucel (hydroxypropylcellulose) (HPC)
[8] = dose: 100.0 mg/kg/injection, schedule: Q01DX005 (ip), vehicle: Klucel (hydroxypropylcellulose) (HPC)
[9] = dose: 200.0 mg/kg/injection, schedule: Q01DX005 (ip), vehicle: Klucel (hydroxypropylcellulose) (HPC)

With `CC1(C)N=C(N)N=C(N)N1c1cccc(CNc2ccc(S(N)(=O)=O)cc2)c1` the T/C (dose: 7.5 mg/kg/injection, schedule: Q01DX005 (ip), vehicle: Klucel (hydroxypropylcellulose) (HPC)) was 102 % of control, the T/C (dose: 15.0 mg/kg/injection, schedule: Q01DX005 (ip), vehicle: Klucel (hydroxypropylcellulose) (HPC)) was 100 % of control and the T/C (dose: 30.0 mg/kg/injection, schedule: Q01DX005 (ip), vehicle: Klucel (hydroxypropylcellulose) (HPC)) was 102 % of control.

In the case of `CN(CC(=O)NN)c1ccccc1`, the T/C [1] is reported as 93 % of control, the T/C [2] is reported as 95 % of control and the T/C [3] is reported as 95 % of control.

For `CC(=O)Nc1ccc(/C=N/NC(=O)COc2ccccc2)cc1`, the T/C (dose: 60.0 mg/kg/injection, schedule: Q01DX005 (ip), vehicle: saline) was 100 % of control, the T/C (dose: 120.0 mg/kg/injection, schedule: Q01DX005 (ip), vehicle: saline) was 100 % of control and the T/C (dose: 240.0 mg/kg/injection, schedule: Q01DX005 (ip), vehicle: saline) was 100 % of control.

With `CCCCCCCCCCCC#CC(=O)O` the T/C [4] was 110 % of control, the T/C [5] was 102 % of control and the T/C [6] was 105 % of control.

In the case of `COC(=O)C(Cc1ccc(O)cc1)NS(=O)(=O)Cc1ccccc1` (stereo not given), the T/C [4] is reported as 107 % of control, the T/C [5] is reported as 96 % of control and the T/C [6] is reported as 99 % of control.

With `NC(CCCCNC(=O)c1ccccc1)C(=O)O` (stereo not given) the T/C [1] was 101 % of control, the T/C [2] was 93 % of control and the T/C [3] was 99 % of control.

`O=C(CNC(=O)OCc1ccccc1)NCC(=O)NC(CSCc1ccccc1)C(=O)O` (stereo not drawn) (Cbz-Gly-Gly-[ξC](Bn)-OH) was tested, and the T/C [7] was 101 % of control, the T/C [8] was 100 % of control and the T/C [9] was 100 % of control.

`O=C(/N=C1\N=Nc2nc(C(C(=O)c3cccs3)c3nc4n(c3O)/C(=N/C(=O)Nc3ccc(Cl)cc3)N=N4)c(O)n21)Nc1ccc(Cl)cc1` (stereo not given) was tested, and the T/C (dose: 60.0 mg/kg/injection, schedule: Q01DX005 (ip), vehicle: saline with Tween-80) was 95 % of control, the T/C (dose: 120.0 mg/kg/injection, schedule: Q01DX005 (ip), vehicle: saline with Tween-80) was 95 % of control and the T/C (dose: 240.0 mg/kg/injection, schedule: Q01DX005 (ip), vehicle: saline with Tween-80) was 100 % of control.

In the case of `Cc1cccc(C)c1NC(=O)CCC(=O)C(C)C(=O)c1ccc(O)cc1` (stereo not given), the T/C (dose: 100.0 mg/kg/injection, schedule: Q01DX001 (ip), vehicle: saline with Tween-80) is reported as 100 % of control, the T/C (dose: 200.0 mg/kg/injection, schedule: Q01DX001 (ip), vehicle: saline with Tween-80) is reported as 100 % of control and the T/C (dose: 400.0 mg/kg/injection, schedule: Q01DX001 (ip), vehicle: saline with Tween-80) is reported as 97 % of control.

In the case of `CC1=CC(=O)C(O)C2(C)C1CC1OC(=O)C(OC(=O)/C=C(\C)C(C)C)C3C(C)C(O)C4(O)OCC13C42` (stereo not given), the T/C (dose: 0.25 mg/kg/injection, schedule: Q01DX005 (ip), vehicle: saline + alcohol) is reported as 113 % of control, the T/C (dose: 0.5 mg/kg/injection, schedule: Q01DX005 (ip), vehicle: saline + alcohol) is reported as 121 % of control and the T/C (dose: 1.0 mg/kg/injection, schedule: Q01DX005 (ip), vehicle: saline + alcohol) is reported as 121 % of control.

With `[N-]=[N+]=NC1(N=[N+]=[N-])C(=O)Nc2ccccc2C1=O` (stereo not given) the T/C [7] was 93 % of control, the T/C [8] was 103 % of control and the T/C [9] was 107 % of control.

With `CC(C)NC(=O)OCc1c(COC(=O)NC(C)C)c(-c2ccc(Cl)c(Cl)c2)n2c1C[C@@H](O)C2` the T/C (dose: 2.5 mg/kg/injection, schedule: Q01DX005 (ip), vehicle: Klucel (hydroxypropylcellulose) (HPC)) was 120 % of control, the T/C (dose: 5.0 mg/kg/injection, schedule: Q01DX005 (ip), vehicle: Klucel (hydroxypropylcellulose) (HPC)) was 120 % of control and the T/C [7] was 150 % of control. The T/C [8] was 166 % of control.

`CCC/C=c1/[nH]c(=O)/c(=C\c2ccc(OC)cc2)[nH]c1=O` was tested, and the T/C (dose: 25.0 mg/kg/injection, schedule: Q01DX009 (ip), vehicle: Klucel (hydroxypropylcellulose) (HPC)) was 101 % of control, the T/C (dose: 50.0 mg/kg/injection, schedule: Q01DX009 (ip), vehicle: Klucel (hydroxypropylcellulose) (HPC)) was 96 % of control and the T/C (dose: 100.0 mg/kg/injection, schedule: Q01DX009 (ip), vehicle: Klucel (hydroxypropylcellulose) (HPC)) was 102 % of control.

For `CCn1c2ccccc2c2cc(NC(=S)NC(=O)c3cccs3)ccc21`, the T/C (dose: 6.25 mg/kg/injection, schedule: Q01DX005 (ip), vehicle: saline with Tween-80) was 93 % of control, the T/C (dose: 12.5 mg/kg/injection, schedule: Q01DX005 (ip), vehicle: saline with Tween-80) was 86 % of control and the T/C (dose: 25.0 mg/kg/injection, schedule: Q01DX005 (ip), vehicle: saline with Tween-80) was 93 % of control. The T/C [2] was 90 % of control and the T/C [3] was 92 % of control.
